# Data from patent US20040214799A1, “Cancerous metastasis inhibitors containing carbacyclic phosphatidic acid derivatives” (priority 2001, published 2004).
# Several values for one entry are separate records, joined by “and”; a condition that tells them apart may be missing. Equal entries are not always repeated.
# Key:
# MM1 cells = experiment: Effect on the proliferation of MM1 cells; type: cell-based, rat; settings: 12.5 μM or 25 μM cPA, 10% FBS, 24 hours and 72 hours
# Experimental: 12.5 μM and 25 μM cPA were added to media containing 10% FBS, and then the cells were cultured under conditions of 37° C. and 5% CO2 for 24 hours and 72 hours. The number of the MM1 cells was counted using a hemocytometer.
# [1] = test system: Mouse malignant melanoma B16-F0; experiment: B16 melanoma hematogenous lung metastasis model; type: in vivo; settings: for invasion of lymphocytes into metastatic lesions observed in cases: animals with metastatic lesions; for Metastatic nodules, Abdominal cavity Adipose tissue / Metastatic nodules, Abdominal cavity Adrenal gland / Metastatic nodules, Abdominal cavity Diaphragm / Metastatic nodules, Abdominal cavity Kidney / Metastatic nodules, Abdominal cavity Ovary / Metastatic nodules, Abdominal cavity Spleen / Metastatic nodules, Thoracic cavity / Metastatic nodules, Tissue around glandual clitoris: autopsy day 14, individual animals; for Number of lung tumor nodules, Range (mininum-maximum) / Number of mice having lung tumor nodules: day 14, N 6; for Number of lung tumor nodules: day 14, mean ± S.D.; for Number of lung tumor nodules / Number of mice having metastatic lesions: N 6; for Number of mice having metastatic lesions / Findings: Invasion of lymphocytes into melanoma metastatic lesion: lung histopathology; for Findings: Invasion of lymphocytes into melanoma metastatic lesion: individual animals; for Number of metastatic lesions per section, Large size: major diameter 0.65 mm ≦ and <1.3 mm; for Number of metastatic lesions per section, Large size / Number of metastatic lesions per section, Small size / Number of metastatic lesions per section, Total: mean ± S.D.; for Number of metastatic lesions per section, Small size: major diameter <0.65 mm, left lobe and posterior lobe; for Metastatic nodules, Abdominal cavity Adipose tissue: key: −: Absent; +: Present; for Metastatic nodules, Abdominal cavity Adrenal gland: key: −: Absent; +: Present; for Metastatic nodules, Abdominal cavity Diaphragm: key: −: Absent; +: Present; for Metastatic nodules, Abdominal cavity Kidney: key: −: Absent; +: Present; for Metastatic nodules, Abdominal cavity Ovary: key: −: Absent; +: Present; for Metastatic nodules, Abdominal cavity Spleen: key: −: Absent; +: Present; for Metastatic nodules, Thoracic cavity: key: −: Absent; +: Present; for Metastatic nodules, Tissue around glandual clitoris: key: −: Absent; +: Present
# Experimental: cPA-19 and cPA-20 were used as test substances. 0.1 w/v % BSA/PBS which was prepared by dissolving Albumin, Bovine [essentially Fatty Acid Free] (BSA, Lot No. 89H7604, Sigma chemical company) in Ca^2+ and Mg^2+ free PBS (pH 7.2), was used as a medium After preparation, the solution was sterilized by filtration using a filter (0.22 μm, Millipore). Preparation was performed when used. cPA-5 was used as a positive control substance.
# A medium was added in a volume required for a test substance or a positive control substance. Dissolution was performed by ultrasonication, thereby preparing a 0.16 mg/mL solution. The 0.16 mg/mL solution containing a test substance was diluted with a medium, thereby preparing 0.08 and 0.02 mg/mL solutions. All mixtures were prepared when used.
# Mice were purchased from CHARLES RIVER JAPAN. INC. The line employed herein was C57BL/6NCrj (sexuality: female). The number of animals kept in stock was 60, and the age of these animals when kept in stock was 4 weeks. […] The environmental conditions for the test system were as follows:
# Mouse malignant melanoma B16-F0 was used as a tumor cell. The cell was purchased from Dainippon Pharmaceutical Co., Ltd.
# Dulbecco's Modified Eagle's Media containing 10% feral bovine serum and kanamycin were used for culture. […] A medium was added to stop the action of trypsin while pipetting, thereby preparing a cell suspension. The suspension was diluted by one-tenth with a medium for culturing, followed by subculturing until it reached a volume sufficient for grafting.
# A cell suspension was prepared by the same technique as the subculture method. Specifically, the cells were washed with a Ca^2+ and Mg^2+ free phosphate buffer [PBS(−)], and then harvested. The harvested cells were suspended in a 10 mL of PBS(−), thereby preparing a cell suspension. The number of cells in the cell suspension was measured to obtain the total cell number. 50 μL of the cell suspension, 100 μL of 0.4% trypan blue liquid and 100 μL of PBS(−) were mixed, and then viable count was measured. The survival rate of the cells was calculated from the viable count and total cell number.
# Based on the body weight on the day of the administration of the test substance, mice were grouped into 8 test groups according to the stratified continuous randomization method as shown in Table 2 below.
# The mixture was administered via the caudal vein. The number of grafted cells was 5×10^5 cells/body. The dose of the test substance was 0.001, 0.004 or 0.008 mg/body, and the dose of the positive control substance was 0.008 mg/body.
# On day 14 after the administration of the test substance, blood was collected from the posterior portion of the abdominal vena cava under isoflurane anesthesia. After the mice were sacrificed by blood-letting, the presence or absence of intrapleural and intraperitoneal metastatic nodules was confirmed. Lungs were extracted, and then fixed with a 10% neutral buffered formalin solution. The number of nodules resulting from lung metastasis was measured under a stereoscopic microscope (magnification: 10 times).
# After the measurement of the number of nodules resulting from lung metastasis, samples were paraffin-embedded, and then thin sections were prepared. Hematoxylin eosinic-stained samples were prepared from these sections. The number of metastatic lesions in the certain portions of the left lobe and the posterior lobe was measured, and then the lesions were sorted by size. On the basis of the diameter (0.65 mm) of an object lens (×40), metastatic lesions with major diameters of less than 0.65 mm were classified as having a small size, and those with major diameters of between 0.65 mm or more and less than 1.30 mm were classified as having a large size. Furthermore, the degree of invasion of lymphocytes into metastatic lesions was confirmed qualitatively.
# The representative value of each test group was denoted as mean±standard deviation (mean±S.D.). Differences in mean values were examined as follows.
# [2] = 0.008 mg/body i.v., autopsy, 6 mice
# [3] = 0.001 mg/body i.v., autopsy, 6 mice
# [4] = 0.004 mg/body i.v., autopsy, 6 mice
compound,measurement,setting,value
"CCCCCCCCCCCCCCCC(=O)OC[C@@H]1COP(=O)(O)O1 [cPA-5, Pal-cPA, reference compound]",effect on MM1 cell proliferation (in words),MM1 cells,no effect on MM1 cell proliferation
same,action of decreasing the number of metastatic lesions (in words),[1]; 0.008 mg/body i.v.,no action of decreasing the number of metastatic lesions was observed
same,metastasis / number of metastatic nodules in the lungs versus medium group (in words),[1]; 0.008 mg/body i.v.,a significant decrease was observed in the number of metastatic nodules
same,invasion of lymphocytes into metastatic lesions observed in cases,[1]; 0.008 mg/body i.v.,2 out of 5
same,"Metastatic nodules, Abdominal cavity Adipose tissue",[1]; 0.008 mg/body i.v.,−
same,"Metastatic nodules, Abdominal cavity Adrenal gland",[1]; 0.008 mg/body i.v.,−
same,"Metastatic nodules, Abdominal cavity Diaphragm",[1]; 0.008 mg/body i.v.,−
same,"Metastatic nodules, Abdominal cavity Kidney",[1]; 0.008 mg/body i.v.,−
same,"Metastatic nodules, Abdominal cavity Ovary",[1]; 0.008 mg/body i.v.,−
same,"Metastatic nodules, Abdominal cavity Spleen",[1]; 0.008 mg/body i.v.,+ (3×) and − (3×)
same,"Metastatic nodules, Thoracic cavity",[1]; 0.008 mg/body i.v.,−
same,"Metastatic nodules, Tissue around glandual clitoris",[1]; 0.008 mg/body i.v.,−
same,cases with metastatic nodules in the spleen,[1]; [2],3 case
same,metastatic nodules in the thoracic cavity,[1]; [2],no metastatic nodules were observed
same,"Number of lung tumor nodules, Range (mininum-maximum)",[1]; 0.008 mg/body i.v.,5-38
same,Number of mice having lung tumor nodules,[1]; 0.008 mg/body i.v.,6
same,Number of lung tumor nodules,[1]; 0.008 mg/body i.v.,21 ± 13$
same,Number of mice having metastatic lesions,[1]; 0.008 mg/body i.v.,5
same,Findings: Invasion of lymphocytes into melanoma metastatic lesion,[1]; 0.008 mg/body i.v.,− (3×) and ++ and +
same,"Number of metastatic lesions per section, Large size",[1]; 0.008 mg/body i.v.,0.8 ± 0.8
same,"Number of metastatic lesions per section, Small size",[1]; 0.008 mg/body i.v.,1.2 ± 0.8
same,"Number of metastatic lesions per section, Total",[1]; 0.008 mg/body i.v.,2.0 ± 1.3
carba-Ole-cPA [cPA-19],effect on MM1 cell proliferation (in words),MM1 cells,showed proliferation suppressing activity
same,invasion of lymphocytes into metastatic lesions observed in cases,[1]; 0.001 mg/body i.v.,1 out of 6
same,"Metastatic nodules, Abdominal cavity Adipose tissue",[1]; 0.001 mg/body i.v.,+ and − (5×)
same,"Metastatic nodules, Abdominal cavity Adrenal gland",[1]; 0.001 mg/body i.v.,+ and − (5×)
same,"Metastatic nodules, Abdominal cavity Diaphragm",[1]; 0.001 mg/body i.v.,−
same,"Metastatic nodules, Abdominal cavity Kidney",[1]; 0.001 mg/body i.v.,+ (2×) and − (4×)
same,"Metastatic nodules, Abdominal cavity Ovary",[1]; 0.001 mg/body i.v.,+ (2×) and − (4×)
same,"Metastatic nodules, Abdominal cavity Spleen",[1]; 0.001 mg/body i.v.,− (5×) and +
same,"Metastatic nodules, Thoracic cavity",[1]; 0.001 mg/body i.v.,− (5×) and +
same,"Metastatic nodules, Tissue around glandual clitoris",[1]; 0.001 mg/body i.v.,−
same,cases with metastatic nodules in adipose tissue,[1]; [3],1 case
same,cases with metastatic nodules in the adrenal gland,[1]; [3],1 case
same,cases with metastatic nodules in the kidney,[1]; [3],2 cases
same,cases with metastatic nodules in the ovary,[1]; [3],2 cases
same,cases with metastatic nodules in the spleen,[1]; [3],1 case
same,cases with metastatic nodules in the thoracic cavity,[1]; [3],1 case
same,"Number of lung tumor nodules, Range (mininum-maximum)",[1]; 0.001 mg/body i.v.,37-66
same,Number of mice having lung tumor nodules,[1]; 0.001 mg/body i.v.,6
same,Number of lung tumor nodules,[1]; 0.001 mg/body i.v.,54 ± 12
same,Number of mice having metastatic lesions,[1]; 0.001 mg/body i.v.,6
same,Findings: Invasion of lymphocytes into melanoma metastatic lesion,[1]; 0.001 mg/body i.v.,− (5×) and +
same,"Number of metastatic lesions per section, Large size",[1]; 0.001 mg/body i.v.,0.7 ± 0.8
same,"Number of metastatic lesions per section, Small size",[1]; 0.001 mg/body i.v.,3.0 ± 1.3
same,"Number of metastatic lesions per section, Total",[1]; 0.001 mg/body i.v.,3.7 ± 1.8
same,number of metastatic nodules of B16-F0 in the lungs versus medium group (in words),[1]; 0.004 mg/body i.v.,significant decrease in the number of metastatic nodules
same,invasion of lymphocytes into metastatic lesions observed in cases,[1]; 0.004 mg/body i.v.,no invasions were observed in 2 cases
same,"Metastatic nodules, Abdominal cavity Adipose tissue",[1]; 0.004 mg/body i.v.,− (5×) and +
same,"Metastatic nodules, Abdominal cavity Adrenal gland",[1]; 0.004 mg/body i.v.,− (5×) and +
same,"Metastatic nodules, Abdominal cavity Diaphragm",[1]; 0.004 mg/body i.v.,−
same,"Metastatic nodules, Abdominal cavity Kidney",[1]; 0.004 mg/body i.v.,−
same,"Metastatic nodules, Abdominal cavity Ovary",[1]; 0.004 mg/body i.v.,−
same,"Metastatic nodules, Abdominal cavity Spleen",[1]; 0.004 mg/body i.v.,+ and − (5×)
same,"Metastatic nodules, Thoracic cavity",[1]; 0.004 mg/body i.v.,−
same,"Metastatic nodules, Tissue around glandual clitoris",[1]; 0.004 mg/body i.v.,−
same,cases with metastatic nodules in adipose tissue,[1]; [4],1 case
same,cases with metastatic nodules in the adrenal gland,[1]; [4],1 case
same,cases with metastatic nodules in the spleen,[1]; [4],1 case
same,metastatic nodules in the thoracic cavity,[1]; [4],no metastatic nodules were observed
same,"Number of lung tumor nodules, Range (mininum-maximum)",[1]; 0.004 mg/body i.v.,2-6
same,Number of mice having lung tumor nodules,[1]; 0.004 mg/body i.v.,6
same,Number of lung tumor nodules,[1]; 0.004 mg/body i.v.,4 ± 2
same,Number of mice having metastatic lesions,[1]; 0.004 mg/body i.v.,2 &
same,Findings: Invasion of lymphocytes into melanoma metastatic lesion,[1]; 0.004 mg/body i.v.,−
same,"Number of metastatic lesions per section, Large size",[1]; 0.004 mg/body i.v.,0 ± 0!!
same,"Number of metastatic lesions per section, Small size",[1]; 0.004 mg/body i.v.,0.3 ± 0.5
same,"Number of metastatic lesions per section, Total",[1]; 0.004 mg/body i.v.,0.3 ± 0.5!
same,metastasis / number of metastatic nodules in the lungs versus medium group (in words),[1]; 0.008 mg/body i.v.,almost completely suppressed metastasis
same,"Metastatic nodules, Abdominal cavity Adipose tissue",[1]; 0.008 mg/body i.v.,−
same,"Metastatic nodules, Abdominal cavity Adrenal gland",[1]; 0.008 mg/body i.v.,−
same,"Metastatic nodules, Abdominal cavity Diaphragm",[1]; 0.008 mg/body i.v.,−
same,"Metastatic nodules, Abdominal cavity Kidney",[1]; 0.008 mg/body i.v.,−
same,"Metastatic nodules, Abdominal cavity Ovary",[1]; 0.008 mg/body i.v.,−
same,"Metastatic nodules, Abdominal cavity Spleen",[1]; 0.008 mg/body i.v.,− (5×) and +
same,"Metastatic nodules, Thoracic cavity",[1]; 0.008 mg/body i.v.,−
same,"Metastatic nodules, Tissue around glandual clitoris",[1]; 0.008 mg/body i.v.,−
same,cases with metastatic nodules in the spleen,[1]; [2],1 case
same,metastatic nodules in the thoracic cavity,[1]; [2],no metastatic nodules were observed
same,"Number of lung tumor nodules, Range (mininum-maximum)",[1]; 0.008 mg/body i.v.,0
same,Number of mice having lung tumor nodules,[1]; 0.008 mg/body i.v.,0 &&
same,Number of lung tumor nodules,[1]; 0.008 mg/body i.v.,0 ± 0
same,Number of mice having metastatic lesions,[1]; 0.008 mg/body i.v.,0 &&
same,"Number of metastatic lesions per section, Large size",[1]; 0.008 mg/body i.v.,0 ± 0!!
same,"Number of metastatic lesions per section, Small size",[1]; 0.008 mg/body i.v.,0 ± 0!
same,"Number of metastatic lesions per section, Total",[1]; 0.008 mg/body i.v.,0 ± 0!!
same,"number of mice having intrapleural or intraperitoneal metastatic nodules, dose dependence (in words)","[1]; 0.001, 0.004 and 0.008 mg/body i.v.",decreased as the dose increased
same,action of suppressing the lung metastasis of B16-F0 compared with cPA-5,[1]; 0.004 and 0.008 mg/body i.v.,stronger than that of cPA-5
